# Measurements from paper PMC6297231 (Nature Communications, 2018).
# Like-named read-outs stand apart in the source and are kept apart here.
# What was measured:
# Sudhl5 = assay: Cell viability assay; assay type: cell-based; conditions: Homo sapiens, SU-DHL-5, 24 h; Sudhl5 (NHL); read-out: AZD5991 24h GI50
# Protocol: (§1) Cells were plated at 3000 cells/well in 384-well white plates in corresponding cell growth media. […] Caspase-3/7 activation was subsequently determined using a Caspase-Glo 3/7 Reagent (Promega) and viability was assayed using the CellTiter-Glo Reagent (Promega) as described in manufacturer’s instructions. Dose–response curves for caspase-3/7 activation and viability were plotted and analyzed (including EC50 and GI50 determination) using GraphPad Prism.
# BT549 = assay: Cell viability assay; assay type: cell-based; conditions: Homo sapiens, BT-549, 24 h; BT549 (Breast); read-out: AZD5991 24h GI50
# Protocol: as §1
# H23 = assay: Caspase-3/7 activation assay; assay type: cell-based; conditions: Homo sapiens
# Protocol: as §1
# OCIM1 = assay: Caspase-3/7 activation assay; assay type: cell-based; conditions: OCI-M1, 6 h
# Protocol: as §1
# KMS34 = assay: Cell viability assay; assay type: cell-based; conditions: KMS-34, 24 h; KMS34 (MM); read-out: AZD5991 24h GI50
# Protocol: as §1
# RCPIWM1 = assay: Cell viability assay; assay type: cell-based; conditions: 24 h; RCPIWM1 (NHL); read-out: AZD5991 24h GI50
# Protocol: as §1
# HL60 = assay: Cell viability assay; assay type: cell-based; conditions: Homo sapiens, HL-60, 24 h; HL60 (AML); read-out: AZD5991 24h GI50
# Protocol: as §1
# SKBR3 = assay: Cell viability assay; assay type: cell-based; conditions: Homo sapiens, SK-BR-3, 24 h; SKBR3 (Breast); read-out: AZD5991 24h GI50
# Protocol: as §1
# L363 = assay: Cell viability assay; assay type: cell-based; conditions: Homo sapiens, L-363, 24 h; L363 (MM); read-out: AZD5991 24h GI50
# Protocol: as §1
# OCILY1 = assay: Cell viability assay; assay type: cell-based; conditions: Homo sapiens, OCI-Ly1, 24 h; OCILY1 (NHL); read-out: AZD5991 24h GI50
# Protocol: as §1
# RT4 = assay: Cell viability assay; assay type: cell-based; conditions: Homo sapiens, RT-4, 24 h; RT4 (Urology); read-out: AZD5991 24h GI50
# Protocol: as §1
# Toledo = assay: Cell viability assay; assay type: cell-based; conditions: Homo sapiens, 24 h; Toledo (NHL); read-out: AZD5991 24h GI50
# Protocol: as §1
# [1] = system: murine Eµ-Myc lymphoma tumors; assay: GFP-labeled Eµ-Myc lymphoma model; assay type: in vivo, mice; conditions: 100 mg kg^−1 on day 3 and day 10 post-transplantation
# From the text: Eµ-Myc: These studies complied with all ethical regulations in accordance with the guidelines established by the Institutional Animal Experimentation Ethics Committee, Peter MacCallum Cancer Center. Non-irradiated C57BL/6 mice between 6 and 8 weeks old were transplanted by tail vein injection with 100,000 GFP-labeled Eμ-Myc lymphoma cells[39] harvested from lymph nodes of a syngeneic mouse. Treatment started 3 days after implantation. AZD5991 and vehicle were formulated and administered as mentioned above. Peripheral blood was collected by retro-orbital sampling 11 days post-transplantation and GFP-expressing leukemic cells assessed by flow cytometry using a BD FACSCanto II cytometer and data analyzed using Flowlogic software. Gating strategy is shown in Supplementary Figure 8.
# A101D = assay: Cell viability assay; assay type: cell-based; conditions: Homo sapiens, 24 h; A101D (Skin); read-out: AZD5991 24h GI50
# Protocol: as §1
# SKLU1 = assay: Cell viability assay; assay type: cell-based; conditions: Homo sapiens, SK-LU-1, 24 h; SKLU1 (Lung); read-out: AZD5991 24h GI50
# Protocol: as §1
# JJN3 = assay: Cell viability assay; assay type: cell-based; conditions: Homo sapiens, JJN-3, 24 h; JJN3 (MM); read-out: AZD5991 24h GI50
# Protocol: as §1
# Karpas422 = assay: Cell viability assay; assay type: cell-based; conditions: Homo sapiens, KARPAS-422, 24 h; Karpas422 (NHL); read-out: AZD5991 24h GI50
# Protocol: as §1
# Z-138 = assay: Cell viability assay; assay type: cell-based; conditions: Homo sapiens, 24 h; Z-138 (NHL); read-out: AZD5991 24h GI50
# Protocol: as §1
# WSUDLCL2 = assay: Cell viability assay; assay type: cell-based; conditions: Homo sapiens, 24 h; WSUDLCL2 (NHL); read-out: AZD5991 24h GI50
# Protocol: as §1
# HEL92.1.7 = assay: Caspase-3/7 activation assay; assay type: cell-based; conditions: Homo sapiens, HEL 92.1.7, 6 h
# Protocol: as §1
# [2] = system: Eμ-Myc lymphoma cells stably expressing human Bfl-1/A1; assay: Apoptosis induction in Eμ-Myc lymphoma cells; conditions: overexpression of Bfl-1/A1, 24 h
# From the text: The retroviral plasmids to express human Bcl-2 family members in murine Eμ-Myc lymphoma cells are MSCV-hMCL-1-GFP, MSCV-hBCL-2-GFP, MSCV-hBCL-XL-GFP, MSCV-hBFL-1/A1-GFP, and MSCV-hBCL-w-GFP. To produce viruses, constructs of interest were co-transfected into HEK293T cells with the plasmid encoding the packaging viruses (p-CL-AMPHO provided by Phillip Darcy from Peter MacCallum Cancer Center, Melbourne, Australia) using standard calcium phosphate transient transfection technique. The retroviruses were harvested, filtered and used to infect target cells following standard procedures.
# Samples were then centrifuged, washed twice with PBS and analyzed by flow cytometry in a BD LSRFortessa. FACSDiva software was used for data collection and FlowJo software for data analysis.
# Calu1 = assay: Cell viability assay; assay type: cell-based; conditions: Homo sapiens, Calu-1, 24 h; Calu1 (Lung); read-out: AZD5991 24h GI50
# Protocol: as §1
# Ramos = assay: Cell viability assay; assay type: cell-based; conditions: Homo sapiens, 24 h; Ramos (NHL); read-out: AZD5991 24h GI50
# Protocol: as §1
# ARH77 = assay: Cell viability assay; assay type: cell-based; conditions: Homo sapiens, ARH-77, 24 h; ARH77 (MM); read-out: AZD5991 24h GI50
# Protocol: as §1
# Sudhl2 = assay: Cell viability assay; assay type: cell-based; conditions: Homo sapiens, SU-DHL-2, 24 h; Sudhl2 (NHL); read-out: AZD5991 24h GI50
# Protocol: as §1
# MDAMB231 = assay: Cell viability assay; assay type: cell-based; conditions: Homo sapiens, MDA-MB-231, 24 h; MDAMB231 (Breast); read-out: AZD5991 24h GI50
# Protocol: as §1
# RCK8 = assay: Cell viability assay; assay type: cell-based; conditions: Homo sapiens, 24 h; RCK8 (NHL); read-out: AZD5991 24h GI50
# Protocol: as §1
# SNU16 = assay: Cell viability assay; assay type: cell-based; conditions: Homo sapiens, SNU-16, 24 h; SNU16 (GI); read-out: AZD5991 24h GI50
# Protocol: as §1
smiles,measurement,setting,value
"Cc1c2c(nn1C)CSCc1cc(n(C)n1)CSc1cc(c3ccccc3c1)OCCCc1c(C(=O)O)n(C)c3c-2c(Cl)ccc13 (atropisomer, axis not shown; (Ra)) [(Ra)-7]",GI50,Sudhl5,18 nM
same,GI50,BT549,250 nM
same,EC50,"H23; NCI-H23, 6 h, read-out: AZD5991 6h EC50, H23 (Lung), caspase 3/7 activation",346 nM
same,EC50,"H23; NCI-H23, caspase activation, Mcl-1-dependent cell line, read-out: NCI-H23, EC50",190 nM
same,EC50,"H23; NCI-H23, mean of log transformed data, read-out: NCI-H23 caspase pEC50 (converted)",195 nM
same,EC50,"OCIM1; read-out: 6h caspase EC50, OCIM1, single agent",> 333 nM
same,EC50,"OCIM1; read-out: AZD5991 6h EC50, OCIM1 (AML), caspase 3/7 activation",> 30000 nM
same,GI50,KMS34,503 nM
same,GI50,RCPIWM1,20 nM
same,GI50,HL60,543 nM
same,GI50,SKBR3,118 nM
same,GI50,L363,75 nM
same,GI50,OCILY1,561 nM
same,GI50,RT4,2400 nM
same,GI50,Toledo,113 nM
same,survival vs. vehicle control group,[1],prolonged survival
same,leukemic cells in peripheral blood,[1]; day 11,depletion of leukemic cells from peripheral blood
same,GI50,A101D,175 nM
same,GI50,SKLU1,29900 nM
same,GI50,JJN3,255 nM
same,GI50,Karpas422,490 nM
same,GI50,Z-138,290 nM
same,GI50,WSUDLCL2,109 nM
same,EC50,"HEL92.1.7; read-out: 6h caspase EC50, HEL9217, single agent",> 333 nM
same,EC50,"HEL92.1.7; read-out: AZD5991 6h EC50, HEL92.1.7 (AML), caspase 3/7 activation",564 nM
same,apoptosis-inducing activity,[2],blocked
same,GI50,Calu1,> 30000 nM
same,GI50,Ramos,11 nM
same,GI50,ARH77,18200 nM
same,GI50,Sudhl2,585 nM
same,GI50,MDAMB231,> 30000 nM
same,GI50,RCK8,> 30000 nM
same,GI50,SNU16,139 nM
